{"source": "patent US7473681B2", "about": "“Kahalalide F” (Pharma Mar, S.A., priority 2000, dated 2009)", "key": {"[1]": {"settings": "glass infusion containers, refrigerated (+2-8° C., in the dark)", "text": "Prior to in i.v. administration it is reconstituted with a solution composed of Cremophor EL, ethanol absolute and Water for Injection (CEW, 5/5/90% v/w) with further dilution in 0.9% w/v sodium chloride for infusion."}, "prostate carcinoma cells": {"test_system": "prostate carcinoma cells", "assay": "Cytotoxicity to carcinoma cells", "type": "cell-based"}, "DHM": {"test_system": "DHM", "assay": "In vitro antiproliferative study", "type": "cell-based", "settings": "DHM prostate tumor"}, "[2]": {"assay": "CellTiter96 (MTS) in vitro cytotoxicity assay", "settings": "H9 c2 (2-1) cardiac cells"}, "[3]": {"assay": "In vitro exposure studies", "type": "cell-based", "settings": "exposure of 1 hour as potent as 48 hours, in most cases"}, "[4]": {"assay": "Rodent maximum tolerated dose", "type": "in vivo"}, "[5]": {"test_system": "fresh human tumor specimens", "assay": "Human Tumor Cloning Assay", "type": "cell-based", "settings": "14-day continuous exposure, 31 evaluable specimens", "experimental": "In the present study, fresh human tumor specimens were treated with KF to determine activity, utilizing the Human Tumor Cloning Assay. One hundred and four patient tumor specimens were treated with KF under 14-day continuous exposure at 0.01, 0.1, and 1.0 μM. Specimens were incubated in a 2-layer soft-agar cloning system at 37° C. and were removed on Day 14 for colony count. Colonies formed in the treated plates were compared to the number of colonies formed in the untreated control plates, and the percent colonies surviving at each concentration was calculated. The positive control plates contained the cell poison orthosodium vanadate (200 μg/ml). Among these specimens, approximately 30% were evaluable with appropriate negative and positive controls."}, "[6]": {"assay": "Solubility of KF and recovery after reconstitution and dilution", "type": "physicochemical", "settings": "5/5/90% v/v/v CEW, diluted with 0.9% NaCl down to 0.5 μg/mL", "procedure": "Methods. Solubility and stability of KF were studied as a function of polysorbate 80 (P80; 0.1-0.5% w/v) and citric acid monohydrate (CA; 5-15 mM) concentrations using an experimental design approach. Stabilities of KF lyophilized products containing crystalline (mannitol) or amorphous (sucrose) bulking agents were studied at +5° C. and +30° C. in the dark. Lyophilized products were characterized by infrared (IR) spectroscopy and differential scanning calorimetry. Recovery studies after reconstitution of KP lyophilized product and further dilution in infusion fluid were carried out to select an optimal reconstitution vehicle. Results. […] A combination of 0.1% w/v P80 and 5 mM CA was selected for further investigation. […] The glass transition temperature of the sucrose-based product was determined to be +46° C. The amorphous state of the product was confirmed by IR analysis. […] A stable lyophilized formulation is presented containing 100 μg of kahalalide F, 100 mg sucrose, 2.1 mg CA and 2 mg P80 to be reconstituted with a vehicle composed of 5/5/90% v/v/v CEW, and to be further dilute using normal saline."}, "[7]": {"test_system": "hepatocellular carcinoma cells", "assay": "Cytotoxicity to carcinoma cells", "type": "cell-based"}, "[8]": {"test_system": "dedifferentiated and mesenchymal chodrosarcomas, CHSAs"}, "[9]": {"assay": "CellTiter96 (MTS) in vitro cytotoxicity assay", "type": "cell-based", "settings": "rat, NRX-52E kidney cells; read-out: LD50 (the source's name)"}, "[10]": {"assay": "Phase I study: plasma pharmacokinetics", "type": "in vivo, human", "procedure": "Bioanalysis of KF was performed by LC-MS/MS."}, "SK-BR-3": {"test_system": "SK-BR-3", "assay": "In vitro antiproliferative study", "type": "cell-based", "settings": "SK-BR-3 neu+ breast tumor cells"}, "[11]": {"assay": "CellTiter96 (MTS) in vitro cytotoxicity assay", "type": "cell-based", "settings": "mouse, FDC-P1 myelogenous stem cells; FDC-Pl myelogenous stem cells; read-out: LD50 (the source's name)"}, "PC-3": {"test_system": "PC-3", "assay": "In vitro antiproliferative study", "type": "cell-based", "settings": "PC-3 prostate tumor"}, "T-10": {"test_system": "T-10", "assay": "In vitro antiproliferative study", "type": "cell-based", "settings": "T-10 prostate tumor"}, "BT-474": {"test_system": "BT-474", "assay": "In vitro antiproliferative study", "type": "cell-based", "settings": "BT-474 neu+ breast tumor cells"}, "BE(2)C": {"test_system": "BE(2)C", "assay": "In vitro antiproliferative study", "type": "cell-based", "settings": "BE(2)C neuroblastoma cell line"}, "[12]": {"test_system": "skeletal muscle (L8) cells", "assay": "CellTiter96 (MTS) in vitro cytotoxicity assay", "type": "cell-based"}, "[13]": {"test_system": "patients with advanced or metastatic androgen refractory prostate cancer", "assay": "Phase I study: toxicity and anti-tumor activity", "type": "in vivo, human"}, "DU-145": {"test_system": "DU-145", "assay": "In vitro antiproliferative study", "type": "cell-based", "settings": "DU-145 prostate tumor"}, "RB": {"test_system": "RB", "assay": "In vitro antiproliferative study", "type": "cell-based", "settings": "RB prostate tumor"}, "[14]": {"assay": "CellTiter96 (MTS) in vitro cytotoxicity assay", "type": "cell-based", "settings": "mouse, AML-12 liver cells; read-out: LD50 (the source's name)"}, "[15]": {"test_system": "central nervous system (CNS) neurons (neurofilament positive)", "assay": "Fluorescent viability stain with immunocytochemistry", "type": "cell-based", "settings": "ethidium homodimer and calcein AM stain", "procedure": "(§1) We have also found this drug to be neuxotoxic at high concentrations in our assay system and which correlates well with animal data showing neurotoxicity above the maximum tolerated dose (MTD). Using a fluorescent viability stain (ethidium homodimer and calccin AM, Molecular Probes) coupled with immunocytochemistry, we determined that ˜10 μM Kahalalide is toxic to central nervous system (CNS) neurons (neurofilament positive) but spares astrocytes (glial fibrilary acidic protein positive) as well as sensory (substance P expressing) and motor (choline acetyl transferase positive) neurons in the spinal cord. We conclude that Kahalalide F is a promising drug for the treatment of prostate cancer as its neurotoxicity is relatively mild at or below MTD levels."}, "[16]": {"test_system": "motor (choline acetyl transferase positive) neurons in the spinal cord", "assay": "Fluorescent viability stain with immunocytochemistry", "type": "cell-based", "settings": "~10 μM", "procedure": "as §1"}, "[17]": {"test_system": "astrocytes (glial fibrilary acidic protein positive)", "assay": "Fluorescent viability stain with immunocytochemistry", "type": "cell-based", "settings": "~10 μM", "procedure": "as §1"}, "[18]": {"test_system": "sensory (substance P expressing) neurons in the spinal cord", "assay": "Fluorescent viability stain with immunocytochemistry", "type": "cell-based", "settings": "~10 μM", "procedure": "as §1"}}, "note": "Like-named read-outs stand apart in the source and are kept apart here.", "data": [{"smiles": "C/C=C1\\NC(=O)[C@H](Cc2ccccc2)NC(=O)[C@@H](C(C)C)NC(=O)[C@@H](C(C)CC)NC(=O)[C@H](NC(=O)C(NC(=O)[C@H](CCCN)NC(=O)[C@H]2CCCN2C(=O)[C@H](NC(=O)[C@@H](NC(=O)[C@@H](NC(=O)[C@H](NC(=O)CCCC(C)C)C(C)C)C(C)O)C(C)C)C(C)C)C(C)CC)C(C)OC(=O)[C@H](C(C)C)NC1=O", "note": "(single isomer, unassigned) [Kahalalide F, kahalalide F]", "values": [{"measurement": "stability of infusion solutions", "setting": "[1]", "result": "at least 5 days"}, {"measurement": "cytotoxicity", "setting": "prostate carcinoma cells", "result": "cytotoxic"}, {"measurement": "IC50", "setting": "DHM", "result": 240, "unit": "nM"}, {"measurement": "LD50", "setting": "[2]", "result": 5, "unit": "mM"}, {"measurement": "schedule dependence of cytotoxicity", "setting": "[3]", "result": "not schedule-dependent"}, {"measurement": "MTD", "setting": "[4]", "result": 300, "unit": "μg/kg BW"}, {"measurement": "specimens with in vitro response (50% survival)", "setting": "[5]; 0.01 μg/M", "result": 16, "unit": "%"}, {"measurement": "specimens with in vitro response (50% survival)", "setting": "[5]; 0.1 μg/M", "result": 19, "unit": "%"}, {"measurement": "specimens with in vitro response (50% survival)", "setting": "[5]; 1.0 μg/M", "result": 81, "unit": "%"}, {"measurement": "KF in solution after reconstitution and further dilution", "setting": "[6]", "result": "kept KF in solution"}, {"measurement": "cytotoxicity", "setting": "[7]", "result": "cytotoxic"}, {"measurement": "cytotoxicity", "setting": "[8]; CHSAs", "result": "cytotoxic"}, {"measurement": "exposure time eliciting a cytotoxic effect", "setting": "[8]; cells not specified further in the sentence", "result": 10, "unit": "min"}, {"measurement": "CC50", "setting": "[9]", "result": 1600, "unit": "nM"}, {"measurement": "maximum plasma concentrations", "setting": "[10]; 320 μg/m2/day", "result": "35 to 50", "unit": "ng/mL"}, {"measurement": "relationship between dose and AUC", "setting": "[10]; i.v. infusion over one hour, 20-320 μg/m2/day, patients", "result": "linear relationship"}, {"measurement": "IC50", "setting": "SK-BR-3", "result": 2500, "unit": "nM"}, {"measurement": "CC50", "setting": "[11]", "result": 14000, "unit": "nM"}, {"measurement": "IC50", "setting": "PC-3", "result": 270, "unit": "nM"}, {"measurement": "IC50", "setting": "T-10", "result": 730, "unit": "nM"}, {"measurement": "IC50", "setting": "BT-474", "result": 2000, "unit": "nM"}, {"measurement": "IC50", "setting": "BE(2)C", "result": 1000, "unit": "nM"}, {"measurement": "LD50", "setting": "[12]", "result": 0.6, "unit": "mM"}, {"measurement": "cytotoxicity", "setting": "osteosarcomas, OSAs", "result": "cytotoxic"}, {"measurement": "drug related toxicity", "setting": "[13]; 320 μg/m2/day, rapidly reversible", "result": "CTC grade 3 ASAT"}, {"measurement": "tolerability of schedule", "setting": "[13]; one hour infusion, five consecutive days every three weeks", "result": "well tolerated"}, {"measurement": "maximum tolerated dose", "setting": "[13]; up to 320 μg/m2/day, study ongoing", "result": "has not been reached yet"}, {"measurement": "IC50", "setting": "DU-145", "result": 250, "unit": "nM"}, {"measurement": "IC50", "setting": "RB", "result": 190, "unit": "nM"}, {"measurement": "CC50", "setting": "[14]", "result": 170, "unit": "nM"}, {"measurement": "concentration toxic to CNS neurons", "setting": "[15]", "result": "~10", "unit": "µM"}, {"measurement": "toxicity to motor neurons", "setting": "[16]", "result": "spares"}, {"measurement": "toxicity to astrocytes", "setting": "[17]", "result": "spares"}, {"measurement": "toxicity to sensory neurons", "setting": "[18]", "result": "spares"}]}]}
